Source: paper PMC8548882, “The Trp-rich Antimicrobial Amphiphiles With Intramolecular Aromatic Interactions for the Treatment of Bacterial Infection” (Frontiers in Microbiology, 2021)
Ends that are not written are not given here.

Experiments:
[1] = tested on: normal skin tissue; test: Skin toxicity, TUNEL assay; conditions: subcutaneous injection, 24h; VW5 5mg/kg; DMSO 100μl 100%
Protocol: The potential toxicity of peptides to normal skin tissues was further tested by TUNEL assay ([Huang et al., 2009]). […] The 100μl 100% DMSO treatment served as a positive control, which was well-known for its toxicity to induce skin necrosis. Then, the skin samples were harvested and were subjected to TUNEL assay and counterstain with 4,6-diamidino-2-phenylindole (DAPI).

[2] = tested on: hRBC, IPEC-J2, HEK 293T, RAW264.7
Protocol: Besides, the therapeutic index of peptide in the mammalian eukaryotic cell (RAW 264.7, HEK 293T, and IPEC J2) was also calculated to study the biocompatibility of peptides.

[3] = tested on: human red blood cells (hRBCs); test: Hemolytic activity; assay type: cell-based
Text: The hemolytic activity of peptides was reflected by the releasing amount of hemoglobin from erythrocytes lysis induced by peptides ([Dong et al., 2014a]). The informed consent was obtained from the volunteers (3 healthy 25-year-old male volunteers) before the experiment. In brief, the human red blood cells (hRBCs), donated by volunteer, were collected, washed, and resuspended in PBS at pH 7.2. The peptides were serially diluted in PBS at different concentrations in a 96-well cell cultures plate and incubated with 50μl hRBCs for 1h at 37°C. The 0.1% Trition X-100 was selected as the treatment of positive control and the negative control was the hRBCs treated with PBS. After 1h incubation, the supernatant, obtained by centrifuging the plate 1,000g for 5min, was transferred to a brand-new plate for absorbance detection at 570nm. The releasing amount of hemoglobin was converted to the percent hemolysis against to 0.1% Triton X-100 treatment. The lowest concentration caused 5% hemolysis of hRBCs and was defined as the lowest hemolytic concentration of antimicrobial peptide.

[4] = tested on: S.epidermidis 12228; assay type: cell-based, Staphylococcus epidermidis ATCC 12228
Text: (§1) The tested strains were kindly provided by the laboratory of Veterinary Microbiology and Immunology, the College of Veterinary Medicine, Northeast Agricultural University (gram-negative bacteria, Salmonella enterica serovar typhimurium C77-31, Salmonella typhimurium ATCC 14028, Escherichia coli ATCC 25922, Pseudomonas aeruginosa ATCC 27853 and gram-positive bacteria, Staphylococcus aureus ATCC 29213, Staphylococcus aureus ATCC 43300, Staphylococcus epidermidis ATCC 12228, Staphylococcus aureus ATCC 25923).

[5] = tested on: S.typhimurium 7731; assay type: cell-based, Salmonella enterica serovar typhimurium C77-31
Text: as §1

[6] = tested on: MRSA 43300; assay type: cell-based, Staphylococcus aureus ATCC 43300; conditions: microtiter dilution, 1×10^5CFU/ml, 18–24h at 37°C, visible turbidity
Text: as §1
(§2) The famous microtiter dilution, National Committee for Clinical Laboratory Standards, was adopted to measure the antimicrobial ability of the engineering peptides ([Chou et al., 2016]). In brief, the 50μl with serial dilution was incubated with the same volume bacteria (1×10^5CFU/ml in midi-logarithmic phase) in a 96-well plate 18–24h at 37°C. The positive control was the bacteria treated with culture medium and the negative control was merely culture medium. The MICs (minimum inhibitory concentrations) were defined as the lowest concentration of peptides that prevented the production of visible turbidity ([Tossi et al., 2000]).

[7] = tested on: RAW 264.7 cells; assay type: cell-based, murine; conditions: RAW264.7; ratio of IC50 to GM
Protocol: (§3) The MTT (3-[4,5 dimethylthiozol-2-yl]-2,5-diphenylterazoliumbromide) dye was selected to analyze the cytotoxicity of peptides against the murine macrophage cell RAW 264.7 (National Collection of Authenticated Cell Cultures, Shanghai, China), human embryonic kidneys (HK293T), and the porcine intestinal epithelial cells (IPEC-J2) as in our previously study ([Li et al., 2020]). In short, the cells (10^4 cells/well) were seeded into 96-well plates and were cultivated overnight. Then the peptides with different final concentration (2μM, 4μM, 8μM, 16μM, 32μM, 64μM, and 128μM) were introduced into the plate and challenged with cells for 24h. After overnight incubation, the 50μl MTT (0.5mg/ml) was added into the cell cultures for 4h. Then the plate was centrifuged to discard the supernatants and obtain the formazan crystals. The DMSO (dimethyl sulfoxide) was employed as a solvent to dissolve the formazan crystals on the bottom of the plate and the optical density was read at 492nm with a microplate reader.

[8] = tested on: IPEC-J2 cells; assay type: cell-based, porcine; conditions: IPEC-J2; ratio of IC50 to GM
Protocol: as §3

[9] = tested on: S.aureus 25923; assay type: cell-based, Staphylococcus aureus ATCC 25923; conditions: 25923
Text: as §1, §2

[10] = tested on: P.aeruginosa 27853; assay type: cell-based, Pseudomonas aeruginosa ATCC 27853; conditions: 27853
Text: as §1, §2

[11] = tested on: S.aureus 29213; assay type: cell-based, Staphylococcus aureus ATCC 29213; conditions: 29213
Text: as §1, §2

[12] = tested on: panel of gram-negative and gram-positive bacteria; conditions: over the eight strains of Table 2
Protocol: as §2

[13] = tested on: P. aeruginosa 27853; assay type: cell-based, Pseudomonas aeruginosa ATCC 27853; conditions: 27853
Protocol: The famous microtiter dilution, National Committee for Clinical Laboratory Standards, was adopted to measure the antimicrobial ability of the engineering peptides ([Chou et al., 2016]). In brief, the 50μl with serial dilution was incubated with the same volume bacteria (1×10^5CFU/ml in midi-logarithmic phase) in a 96-well plate 18–24h at 37°C. The positive control was the bacteria treated with culture medium and the negative control was merely culture medium. […] The antimicrobial performance of peptides against P. aeruginosa 27853 cells was further studied under the complicated physiological conditions ([Lyu et al., 2016]). […] The serum was also taken into the consideration for the adverse impact on the antimicrobial effect of peptides.

[14] = tested on: HEK 293T cells; assay type: cell-based, human; conditions: ratio of IC50 to GM
Protocol: as §3

[15] = tested on: S.typhimurium 14028; assay type: cell-based, Salmonella typhimurium ATCC 14028
Text: as §1

[16] = tested on: E. coli 25922; assay type: cell-based, Escherichia coli ATCC 25922
Text: as §1

Compound	apoptotic cells in epidermal layer (TUNEL) [1]	GMTI, geometric mean of TI of various cell lines [2]	HC5 (MHC), lowest concentration that caused 5% hemolysis ([3]; hRBC in PBS pH 7.2, 1h at 37°C, absorbance 570nm, vs 0.1% Triton X-100, highest test concentration 128μM)	Therapeutic index (TI) ([3]; hRBC, ratio of MHC to GM)	MIC [4]	MIC [5]	MIC [6]	Therapeutic index (TI) [7]	Therapeutic index (TI) [8]	MIC [9]	MIC [10]	MIC [11]	GMMIC, geometric mean of the MICs [12]	MIC [13]	Therapeutic index (TI) [14]	MIC [15]	MIC [16]
C[S+](C)[O-] [DMSO, dimethyl sulfoxide]	heavy cell apoptosis	–	–	–	–	–	–	–	–	–	–	–	–	–	–	–	–
VKKLVKKAVKKLVKKA-NH2 [VL1]	–	>23.48	>128 µM	>1.00	>64 µM	>64 µM	>64 µM	68.71	58.65	>64 µM	>64 µM	>64 µM	128.00 µM	>64 µM	75.40	>64 µM	>64 µM
